Assay results: ChEMBL document CHEMBL1128700 (J Med Chem, 1995)

Tests used:
[1] = system: Human immunodeficiency virus type 1 reverse transcriptase (Human immunodeficiency virus 1), Q72547 [Y181C]; experiment: Percent inhibitory activity against Y181C HIV type I reverse transcriptase at a concentration of 1 uM
[2] = molecular target: Human immunodeficiency virus type 1 reverse transcriptase (Human immunodeficiency virus 1) (UniProt Q72547); experiment: Percent inhibitory activity against wild type (WT) HIV type I reverse transcriptase at a concentration of 1 uM
[3] = molecular target: Human immunodeficiency virus type 1 reverse transcriptase (Human immunodeficiency virus 1, UniProt Q72547); experiment: Compound was evaluated for inhibition of WT HIV type I reverse transcriptase.
[4] = molecular target: Human immunodeficiency virus type 1 reverse transcriptase (Human immunodeficiency virus 1, UniProt Q72547, Y181C); experiment: Compound was evaluated for inhibition of Y181C HIV type I reverse transcriptase.
[5] = system: Human immunodeficiency virus type 1 reverse transcriptase (Human immunodeficiency virus 1), Q72547 [Y181C]; conditions: 10 uM
Description: Percent inhibitory activity against Y181C HIV type I reverse transcriptase at a concentration of 10 uM

SMILES	inhibition [1] [%]	inhibition [2] [%]	IC50 [3] [nM]	IC50 [4] [nM]	inhibition [5] [%]
CCN1c2ncccc2C(=O)Nc2c(C3OCCCO3)cc(O)nc21	0	0			
CCN1c2ncccc2C(=O)Nc2c(Cc3ccccc3)cc(=O)[nH]c21			340	1300	
CCN1c2ncccc2C(=O)Nc2c(C3OCCCO3)cc(OC)nc21	22	52	800		
CCN1c2ncccc2C(=O)Nc2c(CO)cc(OC)nc21	24	89	50		
O=C(O)CCc1ccnc2c1NC(=O)c1cccnc1N2C1CC1	8	2			
CCOCc1ccnc2c1NC(=O)c1cccnc1N2C1CC1	29	41	1300		
O=C1Nc2c(CSCc3ccccc3)ccnc2N(C2CC2)c2ncccc21	28	33			
CCN1c2ncccc2C(=O)Nc2c(COc3ccccc3)cc(-c3cccc(OC)c3)nc21	37	69	490		
O=C1Nc2c(COCc3ccccc3)ccnc2N(C2CC2)c2ncccc21	37	67	270		
CCN1c2ncccc2C(=O)Nc2c(C=O)cc(OC)nc21	38	78	240		
CCN1c2ncccc2C(=O)Nc2c(C=O)cc(-c3cccc(OC)c3)nc21	63	71	330	420	
COc1ccc(O)c(Cc2ccnc3c2NC(=O)c2cccnc2N3C2CC2)c1	47	42	850		
CCN1c2ncccc2C(=O)Nc2c(COCc3ccccc3)cc(OC)nc21	26	42	920		
Cc1ccc(OCc2ccnc3c2NC(=O)c2cccnc2N3C2CC2)cc1	33	55	580		
O=C1Nc2c(CCc3ccccc3)ccnc2N(C2CC2)c2ncccc21	38	36			
Cc1ccc(Cc2ccnc3c2NC(=O)c2cccnc2N3C2CC2)c(O)c1	29	76	200		
O=C1Nc2c(COCCc3ccccc3)ccnc2N(C2CC2)c2ncccc21	28	55	420		
O=C1Nc2c(CNc3ccccc3)ccnc2N(C2CC2)c2ncccc21	41	87	60	1370	
COc1ccc(OCc2ccnc3c2NC(=O)c2cccnc2N3C2CC2)cc1	41	47	1040		
O=C1Nc2c(COc3ccccc3)ccnc2N(C2CC2)c2ncccc21	26	78	120	2580	

SMILES	inhibition [1] [%]	inhibition [2] [%]	IC50 [3] [nM]	IC50 [4] [nM]	inhibition [5] [%]
C=CCOCc1ccnc2c1NC(=O)c1cccnc1N2C1CC1	29	35	1410		
O=C1Nc2c(/C=C/c3ccccc3)ccnc2N(C2CC2)c2ncccc21	25	23			
CCN1c2ncccc2C(=O)Nc2c(Cc3ccccc3)cc(O)nc21	42	67			
O=C1Nc2c(Cn3cccn3)ccnc2N(C2CC2)c2ncccc21	5	36	2200		
CCOC(=O)/C=C/c1ccnc2c1NC(=O)c1cccnc1N2C1CC1	22	27			
O=C1Nc2c(COc3ccccc3O)ccnc2N(C2CC2)c2ncccc21	42	59	460		
O=C(O)/C=C/c1ccnc2c1NC(=O)c1cccnc1N2C1CC1	0	0			
CCN1c2ncccc2C(=O)Nc2c(COCc3ccccc3)cc(-c3cccc(OC)c3)nc21	12	0			
CCN1c2ncccc2C(=O)Nc2c(CO)cc(-c3cccc(OC)c3)nc21	0	16			
CCN1c2ncccc2C(=O)Nc2c(Cc3ccccc3)cc(-c3cccc(OC)c3)nc21	15	20			
CCN1c2ncccc2C(=O)Nc2c(COCc3ccccc3)cc(=O)[nH]c21			110	1070	
O=C1Nc2c(COc3ccc([N+](=O)[O-])cc3)ccnc2N(C2CC2)c2ncccc21	12	43	1130		
O=C1Nc2c(Cc3ccccc3)ccnc2N(C2CC2)c2ncccc21	8	73	140		
N#Cc1ccc(OCc2ccnc3c2NC(=O)c2cccnc2N3C2CC2)cc1	11	57	410		
CCOC(=O)CCc1ccnc2c1NC(=O)c1cccnc1N2C1CC1	11	13			
Nc1ccc(OCc2ccnc3c2NC(=O)c2cccnc2N3C2CC2)cc1	49	91	100	1010	
CCN1c2ncccc2C(=O)Nc2c(C=O)cc(O)nc21	6	36			
Cc1cccc(OCc2ccnc3c2NC(=O)c2cccnc2N3C2CC2)c1	9	38	2430		
CCN1c2ncccc2C(=O)Nc2c(COCc3ccccc3)cc(O)nc21	38	83			
Cc1ccccc1OCc1ccnc2c1NC(=O)c1cccnc1N2C1CC1	28	65	290		

SMILES	inhibition [1] [%]	inhibition [2] [%]	IC50 [3] [nM]	IC50 [4] [nM]	inhibition [5] [%]
CCN1c2ncccc2C(=O)Nc2c(COc3ccccc3)cc(O)nc21	20	33			
O=C1Nc2c(CO)ccnc2N(C2CC2)c2ncccc21	4	34			
O=C1Nc2c(COCCCc3ccccc3)ccnc2N(C2CC2)c2ncccc21	20	29			
CCNc1ccc(OCc2ccnc3c2NC(=O)c2cccnc2N3C2CC2)cc1	58	88	80	430	
CCN1c2ncccc2C(=O)Nc2c(COc3ccccc3)cc(OC)nc21	17	44	4000		
O=C1Nc2c(Cc3ccccc3O)ccnc2N(C2CC2)c2ncccc21	50	75	190	1120	
O=C1Nc2c(Cn3ccnc3)ccnc2N(C2CC2)c2ncccc21	20	13			
CCN1c2ncccc2C(=O)Nc2c(CO)cc(O)nc21	25	51	420		
CCN1c2ncccc2C(=O)Nc2c(C3OCCCO3)cc(-c3cccc(OC)c3)nc21	7	40			
C=Cc1ccnc2c1NC(=O)c1cccnc1N2C1CC1	16	83	110		
O=C1Nc2c(COc3ccccc3Cl)ccnc2N(C2CC2)c2ncccc21	20	30	3050		
Cc1ccnc2c1NC(=O)c1cccnc1N2C1CC1		85			59
O=C1Nc2c(CSc3ccccc3)ccnc2N(C2CC2)c2ncccc21	14	44	1030		
O=C1Nc2c(CC3=CCNC3)ccnc2N(C2CC2)c2ncccc21	26	54	640		
CCN1c2ncccc2C(=O)Nc2c(Cc3ccccc3)cc(OC)nc21	0	0			
O=C1Nc2c(CN3CCCCC3)ccnc2N(C2CC2)c2ncccc21	20	29			
O=C1Nc2c(CN3CCOCC3)ccnc2N(C2CC2)c2ncccc21	21	50	1030		
O=C1Nc2c(CN3CCCC3)ccnc2N(C2CC2)c2ncccc21	16	51	700		
